Results on 2 compounds are retold here after patent US6710052B2, “Pyrimidine compounds” (AstraZeneca, priority 2000, dated 2004).

The target of one assay is T1, CDK4/Cyclin D1 (Homo sapiens, UniProt P11802).
T1 construct: made in house; host or cells: Sf21 insect cells, baculovirus co-infection (pVL1393); the GST-Rb substrate was made in E. coli BL21 (DE3) pLysS
In words: CDK4 Inhibition Assay (Scintillation Proximity Assay, GST-Retinoblastoma substrate). It counts as biochemical. The settings on record: in vitro kinase assay; read-out: CDK4 inhibitory activity IC50. As for the experimental part: The compounds were tested in an in vitro kinase assay in 96 well format using Scintillation Proximity Assay (SPA—obtained from Amersham) for measuring incorporation of [γ-33-P]-Adenosine Triphosphate into a test substrate (GST-Retinoblastoma). In each well was placed the compound to be tested (diluted in DMSO and water to correct concentrations) and in control wells either p 16 as an inhibitor control or DMSO as a positive control.
Approximately 0.51 μl of CDK4/Cyclin D1 partially-purified enzyme (amount dependent on enzyme activity) diluted in 25 μl incubation buffer was added to each well then 20 μl of GST-Rb/ATP/ATP33 mixture (containing 0.5 μg GST-Rb and 0.2 μM ATP and 0.14 μCi [γ-33-P]-Adenosine Triphosphate), and the resulting mixture shaken gently, then incubated at room temperature for 60 minutes. […]
The plates were sealed with Topseal-S plate sealers, left for two hours then spun at 2500 rpm, 1124× g., for 5 minutes. The plates were read on a Topcount for 30 seconds per well. […]
E. coli paste was resuspended in 10 ml/g of NETN buffer (50 mM Tris pH 7.5, 120 mM NaCl, 1 mM EDTA, 0.5%v/v NP-40, 1 mM PMSF, 1 ug/ml leupeptin, 1 ug/ml aprotinin and 1 ug/ml pepstatin) and sonicated for 2×45 seconds per 100 ml homogenate. […] The final product was analysed by Sodium Dodeca Sulfate (SDS) PAGE (Polyacrylamide gel) using 8-16% Tris-Glycine gels (Novex, San Diego, USA). […]

Assay [1] addresses T2, human Focal Adhesion Kinase (FAK) (Homo sapiens, UniProt Q05397).
T2 construct: FAK (full length human cDNA described by Andre et al); made in house; host or cells: Sf21 insect cells, recombinant baculovirus (pFastbac 1)
Briefly: FAK3 Kinase Inhibition Assay. The conditions noted are these: in vitro enzyme assay; read-out: FAK inhibitory activity IC50. It counts as biochemical. The source says:
FAK3 Kinase Inhibition Assay
This assay determines the ability of a test compound to inhibit tyrosine kinase activity of human Focal Adhesion Kinase (FAK).
DNA encoding FAK is obtained by total gene synthesis (Edwards M, International Biotechnology Lab 5(3), 19-25, 1987) or by cloning. These are then expressed in a suitable expression system to obtain polypeptide with tyrosine kinase activity.
Active FAK protein has been previously expressed in a baculovirus system using a similar N-terminal 6-histidine tag (Protein Expression And Purification, 1996, 7: 12-18). The human FAK cDNA was cloned into the baculovirus transplacement vector, pFastbac 1 (Life Technologies), and the recombinant construct was co-transfected into insect cells (for example Spodoptera frugiperda 21(Sf21)) with viral DNA to prepare recombinant baculovirus (details of the methods for the assembly of recombinant DNA molecules and the preparation and use of recombinant baculovirus can be found in standard texts for example Sambrook et al, 1989, Molecular cloning—A Laboratory Manual, 2nd edition, Cold Spring Harbour Laboratory Press and O'Reilly et al, 1992, Baculovirus Expression Vectors—A Laboratory Manual, W. H. Freeman and Co, New York. Details specific to the use of the pFastbac (‘Bac to Bac’) system are provided in Anderson et al., 1995, FOCUS (Life Technologies Bulletin Magazine), 17, p53.) […]

Each structure is given as a SMILES string.

T1 sequence (P11802 whole entry): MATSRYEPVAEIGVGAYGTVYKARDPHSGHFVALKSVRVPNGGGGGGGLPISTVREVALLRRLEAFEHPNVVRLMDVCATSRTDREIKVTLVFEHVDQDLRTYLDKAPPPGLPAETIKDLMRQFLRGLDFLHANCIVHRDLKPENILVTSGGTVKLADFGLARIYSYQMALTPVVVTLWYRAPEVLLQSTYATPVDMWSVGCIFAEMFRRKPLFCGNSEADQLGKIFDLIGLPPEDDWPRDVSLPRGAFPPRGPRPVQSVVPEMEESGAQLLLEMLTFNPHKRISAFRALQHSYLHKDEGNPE
T1 sequence (P24385 whole entry partner): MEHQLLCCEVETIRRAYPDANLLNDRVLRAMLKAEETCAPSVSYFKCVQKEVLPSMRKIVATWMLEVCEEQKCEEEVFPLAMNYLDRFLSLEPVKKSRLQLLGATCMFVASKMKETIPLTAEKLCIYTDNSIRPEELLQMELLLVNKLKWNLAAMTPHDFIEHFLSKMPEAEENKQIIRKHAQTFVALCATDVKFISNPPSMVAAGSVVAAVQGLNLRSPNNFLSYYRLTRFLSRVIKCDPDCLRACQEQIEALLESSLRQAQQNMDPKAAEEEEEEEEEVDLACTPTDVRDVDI
T2 sequence (Q05397 whole entry): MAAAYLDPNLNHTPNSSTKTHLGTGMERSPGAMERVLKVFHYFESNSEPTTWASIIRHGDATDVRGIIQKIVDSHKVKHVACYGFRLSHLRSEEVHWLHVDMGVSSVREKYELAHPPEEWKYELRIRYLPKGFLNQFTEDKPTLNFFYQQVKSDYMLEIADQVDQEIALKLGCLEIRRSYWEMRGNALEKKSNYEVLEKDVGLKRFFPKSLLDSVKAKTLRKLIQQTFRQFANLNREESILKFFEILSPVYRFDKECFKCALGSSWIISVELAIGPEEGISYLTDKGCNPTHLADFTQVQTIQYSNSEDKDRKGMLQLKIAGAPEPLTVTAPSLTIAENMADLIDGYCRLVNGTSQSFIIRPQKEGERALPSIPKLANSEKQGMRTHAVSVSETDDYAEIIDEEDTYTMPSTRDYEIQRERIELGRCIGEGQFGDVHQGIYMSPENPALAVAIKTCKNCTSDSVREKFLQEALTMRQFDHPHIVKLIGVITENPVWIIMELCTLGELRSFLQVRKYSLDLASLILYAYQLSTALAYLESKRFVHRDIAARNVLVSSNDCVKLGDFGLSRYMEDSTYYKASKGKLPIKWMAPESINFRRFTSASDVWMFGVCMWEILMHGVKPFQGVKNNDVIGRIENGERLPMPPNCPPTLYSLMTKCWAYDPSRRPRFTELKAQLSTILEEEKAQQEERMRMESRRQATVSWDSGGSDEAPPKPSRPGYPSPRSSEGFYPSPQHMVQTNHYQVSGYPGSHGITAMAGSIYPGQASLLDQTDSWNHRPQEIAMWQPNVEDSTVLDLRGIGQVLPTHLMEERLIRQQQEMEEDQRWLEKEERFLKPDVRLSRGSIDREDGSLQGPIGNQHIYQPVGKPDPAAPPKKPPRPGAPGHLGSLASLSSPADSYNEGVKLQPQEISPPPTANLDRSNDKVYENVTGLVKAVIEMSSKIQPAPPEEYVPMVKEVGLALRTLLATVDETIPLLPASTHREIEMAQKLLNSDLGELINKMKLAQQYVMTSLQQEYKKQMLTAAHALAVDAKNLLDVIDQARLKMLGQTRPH

As to `COc1ccc(Oc2nc(Nc3ccc(OCC(O)CNC(C)C)cc3)ncc2F)cc1` (centres unmarked) [Example 13], on CDK4/Cyclin D1, the half-maximal inhibitory concentration (IC50) (in general, the point on the concentration scale where inhibition reaches its midpoint) is 896 nM. As to `CN(C)CC(O)COc1ccc(Nc2ncc(Br)c(Sc3ccccc3)n2)cc1` (centres unmarked) [Example 14, 5-Bromo-2-{4-[2-hydroxy-3-(N,N-dimethylamino)propoxy]anilino}-4-(phenylthio)pyrimidine], the IC50 in assay [1] was 366 nM.
